{"source": "paper PMC3262105", "about": "(Journal of the American Chemical Society, 2012)", "origin": "cited, not measured here", "key": {"[1]": {"system": "SEVI- and semen-mediated enhancement of HIV infection in T cells"}, "cervical cells [2]": {"system": "cervical cells", "conditions": "concentration 10 times the IC50 for efficacy"}, "cervical cells [3]": {"system": "cervical cells", "conditions": "concentration 10 times the IC50 for efficacy", "remark": "listed apart in the source"}}, "data": [{"compound": "Cc1ccc2nc(-c3ccc(NCCOCCOCCOCCOCCOCCO)cc3)sc2c1", "note": "[BTA-EG6]", "values": [{"measurement": "concentration required to nearly completely neutralize the effects of SEVI on HIV-1 infection", "setting": "[1]", "value": 44, "unit": "µM"}, {"measurement": "IC50", "setting": "[1]; read-out: IC50 for reducing SEVI-enhanced infection of HIV, T cells", "value": 13, "unit": "µM"}, {"measurement": "toxicity to cervical cells", "setting": "cervical cells [2]", "value": "not toxic"}, {"measurement": "pro-inflammatory activity", "setting": "cervical cells [3]", "value": "did not exhibit any pro-inflammatory activity"}]}]}
